Assay results from patent publication US11008317B2, “Triazolopyridine inhibitors of myeloperoxidase and/or EPX” (priority 2016, dated 2021).

Tests used:
myeloperoxidase [1] = biological target: T1, myeloperoxidase (Homo sapiens, UniProt P05164); experiment: MPO Peroxidation Assay (Amplex Red Assay); format: biochemical; conditions: potency range class, read-out: Amplex Red Assay IC50 value
T1 sequence (P05164 49-745): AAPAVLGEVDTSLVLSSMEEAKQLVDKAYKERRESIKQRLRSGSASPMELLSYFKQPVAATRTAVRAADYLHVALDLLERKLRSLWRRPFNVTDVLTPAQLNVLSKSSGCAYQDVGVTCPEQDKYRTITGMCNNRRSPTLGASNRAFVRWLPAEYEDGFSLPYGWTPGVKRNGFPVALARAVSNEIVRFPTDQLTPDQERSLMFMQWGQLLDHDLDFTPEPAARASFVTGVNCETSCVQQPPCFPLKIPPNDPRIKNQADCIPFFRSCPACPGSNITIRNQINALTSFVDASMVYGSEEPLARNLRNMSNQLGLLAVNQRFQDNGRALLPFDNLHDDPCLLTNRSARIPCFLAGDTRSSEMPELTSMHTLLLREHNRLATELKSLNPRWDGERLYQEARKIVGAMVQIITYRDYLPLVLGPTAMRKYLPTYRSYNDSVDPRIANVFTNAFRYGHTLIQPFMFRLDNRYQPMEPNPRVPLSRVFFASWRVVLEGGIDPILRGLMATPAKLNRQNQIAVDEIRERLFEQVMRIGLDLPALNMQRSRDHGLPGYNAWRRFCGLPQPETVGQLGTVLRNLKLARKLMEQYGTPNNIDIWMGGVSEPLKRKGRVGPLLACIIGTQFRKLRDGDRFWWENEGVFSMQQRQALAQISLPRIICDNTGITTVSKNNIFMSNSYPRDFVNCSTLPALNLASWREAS

myeloperoxidase [2] = biological target: T1, myeloperoxidase; experiment: MPO Chlorination Assay (APF Assay); format: biochemical; conditions: potency range class, read-out: APF Assay IC50 value

| Compound | IC50 (myeloperoxidase [1]) [nM] | IC50 (myeloperoxidase [2]) [nM] |
| --- | --- | --- |
| COc1ccncc1[C@H]1CC[C@H](NCCC(c2ccccc2)c2cc(N)nc3[nH]nnc23)CC1 (stereo partly drawn) [Example 137, 7-(1-phenyl-3-{[(trans)-4-(4-methoxypyridin-3-yl)cyclohexyl]amino}propyl)-3H-[1,2,3]triazolo [4,5-b]pyridin-5-amine] | 1000 to 10000 | 101 to 999 |
| COc1ccncc1[C@H]1CC[C@@H](NCCC(c2ccccc2)c2cc(N)nc3[nH]nnc23)CC1 (some centres unmarked) [Example 138, 7-(1-phenyl-3-{[(1s,4s)-4-(4-methoxypyridin-3-yl)cyclohexyl]amino}propyl)-3H-[1,2,3]triazolo [4,5-b]pyridin-5-amine] | 1000 to 10000 | 1000 to 10000 |
| Nc1cc(C(CCN[C@H]2CC[C@H](c3ccncc3)CC2)c2ccccc2)c2nn[nH]c2n1 (stereo partly drawn) [Example 139, 7-(1-phenyl-3-{[(trans)-4-(pyridin-4-yl)cyclohexyl]amino}propyl)-3H-[1,2,3] triazolo[4,5-b] pyridin-5-amine] | 101 to 999 | 1 to 100 |
| Nc1cc(C(CCN[C@H]2CC[C@@H](c3ccncc3)CC2)c2ccccc2)c2nn[nH]c2n1 (some centres unmarked) [Example 141, 7-(1-phenyl-3-{[(1s,4s)-4-(pyridin-4-yl)cyclohexyl]amino}propyl)-3H-[1,2,3]triazolo [4,5-b]pyridin-5-amine] | 101 to 999 | 101 to 999 |
| Nc1cc(C(CCNC2(Cc3ccccc3)CCC(c3ccccc3)CC2)c2ccccc2)c2nn[nH]c2n1 (centres unmarked) [Example 142, 7-{3-[(1-benzyl-4-phenylcyclohexyl)amino]-1-phenylpropyl}-3H-[1,2,3]triazolo[4,5-b]pyridin-5-amine] | 1000 to 10000 | 101 to 999 |
| Nc1cc(C(CCNC2(c3ccccc3)CCC(c3ccccc3)CC2)c2ccccc2)c2nn[nH]c2n1 (centres unmarked) [Example 144, 7-{3-[(1,4-diphenylcyclohexyl)amino]-1-phenylpropyl}-3H-[1,2,3]triazolo [4,5-b]pyridin-5-amine] | 1000 to 10000 | 101 to 999 |
| Nc1cc(C(CCNC23CCC(c4ccccc4)(CC2)C(O)C3)c2ccccc2)c2nn[nH]c2n1 (centres unmarked) [Example 145, 4-[(3-{5-amino-3H-[1,2,3]triazolo[4,5-b]pyridin-7-yl}-3-phenylpropyl)amino]-1-phenylbicyclo [2.2.2]octan-2-ol] | 1 to 100 | 1 to 100 |
| Nc1cc(C(CCN[C@H]2CC[C@H](n3cncn3)CC2)c2ccccc2)c2nn[nH]c2n1 (stereo partly drawn) [Example 146, 7-(1-phenyl-3-{[(trans)-4-(1H-1,2,4-triazol-1-yl)cyclohexyl]amino}propyl)-3H-[1,2,3] triazolo[4,5-b] pyridin-5-amine] | 1000 to 10000 | 101 to 999 |
| CC1CC2(NCCC(c3ccccc3)c3cc(N)nc4[nH]nnc34)CCC1(c1ccccc1)CC2 (centres unmarked) [Example 147, 7-[3-({3-methyl-4-phenylbicyclo[2.2.2]octan-1-yl}amino)-1-phenylpropyl]-3H-[1,2,3]triazolo [4,5-b]pyridin-5-amine] | 1 to 100 | 1 to 100 |
| COC1CC2(NCCC(c3ccccc3)c3cc(N)nc4[nH]nnc34)CCC1(c1ccccc1)CC2 (centres unmarked) [Example 148, 7-[3-({3-methoxy-4-phenylbicyclo [2.2.2]octan-1-yl}amino)-1-phenylpropyl]-3H-[1,2,3]triazolo[4,5-b]pyridin-5-amine] | 1 to 100 | 1 to 100 |
| Nc1cc(C(CCNC2CC3CCC(C2)C3c2ccccc2)c2ccccc2)c2nn[nH]c2n1 (centres unmarked) [Example 149, 7-[1-phenyl-3-({8-phenylbicyclo[3.2.1]octan-3-yl}amino)propyl]-3H-[1,2,3]triazolo[4,5-b] pyridin-5-amine] | 1000 to 10000 | 101 to 999 |
| Nc1cc(C(CCNC2CC[C@H](c3ccccc3)[C@@H](O)C2)c2ccccc2)c2nn[nH]c2n1 (stereo partly drawn) [Example 150, (1S,2R)-5-[(3-{5-amino-3H-[1,2,3]triazolo[4,5-b]pyridin-7-yl}-3-phenylpropyl)amino]-2-phenylcyclohexan-1-ol] | 101 to 999 | 1 to 100 |
| Nc1cc(C(CCNC2(C(F)(F)F)CCC(c3ccccc3)CC2)c2ccccc2)c2nn[nH]c2n1 (centres unmarked) [Example 151, 7-(1-phenyl-3-{[4-phenyl-1-(trifluoromethyl)cyclohexyl]amino}propyl)-3H-[1,2,3]triazolo[4,5-b] pyridin-5-amine] | 1000 to 10000 | 1000 to 10000 |
| Nc1cc(C(CCNC23CCC(c4ccccc4)(CC2)CC3O)c2ccccc2)c2nn[nH]c2n1 (centres unmarked) [Example 152, 1-[(3-{5-amino-3H-[1,2,3]triazolo[4,5-b]pyridin-7-yl}-3-phenylpropyl)amino]-4-phenylbicyclo [2.2.2]octan-2-ol] | 1 to 100 | 1 to 100 |
| COC1CC2(c3ccccc3)CCC1(NCC[C@H](c1ccccc1)c1cc(N)nc3[nH]nnc13)CC2 (stereo partly drawn) [Example 153, 7-[(1R)-3-({2-methoxy-4-phenylbicyclo[2.2.2]octan-1-yl}amino)-1-phenylpropyl]-3H-[1,2,3]triazolo[4,5-b]pyridin-5-amine] | 1 to 100 | 1 to 100 |
| Nc1cc([C@H](CCNC23CCC(c4ccccc4)(CC2)C(O)C3)c2ccccc2)c2nn[nH]c2n1 (stereo partly drawn) [Example 154, 4-{[(3R)-3-{5-amino-3H-[1,2,3]triazolo [4,5-b]pyridin-7-yl}-3-phenylpropyl]amino}-1-phenylbicyclo [2.2.2]octan-2-ol] | 1 to 100 | 1 to 100 |
| N#Cc1cccc(C(CCNC2CCC(c3ccccc3)CC2)c2cc(N)nc3[nH]nnc23)c1 (centres unmarked) [Example 155, 3-(1-{5-amino-3H-[1,2,3]triazolo [4,5-b]pyridin-7-yl}-3-[(4-phenylcyclohexyl)amino]propyl)benzonitrile] | 101 to 999 | 1 to 100 |
| Nc1cc(C(CCN[C@H]2CC[C@H](c3ccccc3)CC2)c2cccc(F)c2)c2nn[nH]c2n1 (stereo partly drawn) [Example 156, 7-[1-(3-fluorophenyl)-3-{[(trans)-4-phenylcyclohexyl]amino}propyl]-3H-[1,2,3]triazolo [4,5-b]pyridin-5-amine] | 101 to 999 | 1 to 100 |
| Nc1cc(C(CCN[C@H]2CC[C@H](c3ccccc3)CC2)c2ccccc2F)c2nn[nH]c2n1 (stereo partly drawn) [Example 157, 7-[1-(2-fluorophenyl)-3-{[(trans)-4-phenylcyclohexyl]amino}propyl]-3H-[1,2,3]triazolo [4,5-b]pyridin-5-amine] | 101 to 999 | 1 to 100 |
| COc1cccc(C(CCN[C@H]2CC[C@H](c3ccccc3)CC2)c2cc(N)nc3[nH]nnc23)c1 (stereo partly drawn) [Example 158, 7-[1-(3-methoxyphenyl)-3-{[(trans)-4-phenylcyclohexyl]amino}propyl]-3H-[1,2,3]triazolo [4,5-b]pyridin-5-amine] | 101 to 999 | 1 to 100 |
| N#Cc1ccc(C(CCN[C@H]2CC[C@H](c3ccccc3)CC2)c2cc(N)nc3[nH]nnc23)cc1 (stereo partly drawn) [Example 159, 4-(1-{5-amino-3H-[1,2,3]triazolo [4,5-b]pyridin-7-yl}-3-{[(trans)-4-phenylcyclohexyl]amino}propyl) benzonitrile] | 101 to 999 | 1000 to 10000 |
| NCc1ccc(C(CCN[C@H]2CC[C@H](c3ccccc3)CC2)c2cc(N)nc3[nH]nnc23)cc1 (stereo partly drawn) [Example 160, 7-{1-[4-(aminomethyl)phenyl]-3-{[(trans)-4-phenylcyclohexyl]amino}propyl}-3H-[1,2,3]triazolo[4,5-b]pyridin-5-amine] | 101 to 999 | 1000 to 10000 |
